Biological target: T1, Tyrosine-protein phosphatase non-receptor type 1 (Homo sapiens, UniProt P18031)
T1 sequence (P18031 whole entry): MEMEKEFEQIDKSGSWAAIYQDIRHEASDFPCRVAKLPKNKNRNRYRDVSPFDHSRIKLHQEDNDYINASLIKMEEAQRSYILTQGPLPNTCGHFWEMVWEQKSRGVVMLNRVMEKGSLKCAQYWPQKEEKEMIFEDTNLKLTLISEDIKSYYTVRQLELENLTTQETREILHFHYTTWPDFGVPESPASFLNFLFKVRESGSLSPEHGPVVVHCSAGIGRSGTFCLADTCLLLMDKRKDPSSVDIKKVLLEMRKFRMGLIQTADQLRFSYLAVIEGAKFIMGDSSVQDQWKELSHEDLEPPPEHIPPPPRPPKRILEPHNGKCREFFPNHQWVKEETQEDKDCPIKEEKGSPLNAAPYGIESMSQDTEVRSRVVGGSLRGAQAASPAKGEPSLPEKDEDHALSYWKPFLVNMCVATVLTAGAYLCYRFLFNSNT
Assay: Inhibition of human recombinant PTP1B catalytic domain

In the case of `CC1=C[C@@H]2C[C@H](C)[C@]1(C)CCc1ccoc12`, the IC50 is reported as 8.78 µM.
Work on `C=C1CCC[C@@H](C)[C@@]1(C)CCc1ccoc1` yielded an IC50 of 31.1 µM.
Work on `C=C1C=CC[C@@H](C)[C@@]1(C)CCC1=CC(O)OC1=O` (some centres undefined) [HYDROXYBUTENOLIDE] yielded an IC50 of 46.7 µM.
For `C[C@@H]1[C@@H]2C=C[C@@](C)(OO2)[C@@]1(C)CCC1=CC(O)OC1=O` (some centres undefined) [LINGSHUIPEROXIDE], the IC50 was 31.4 µM.
